Assay results taken from patent publication US20240024479A1, “NK CELLS OR T CELLS EXPRESSING CHIMERIC HEMATOPOIETIC GROWTH FACTOR RECEPTORS AND METHODS OF USE” (The United States of America, as represented by the …, priority 2020, published 2024).

System: c-MPL+ NK-92 cells
Assay: In vitro cell expansion of c-MPL+ NK-92 cells
Format: cell-based, human
Conditions: day 8
Excerpt: Lentiviral production and transduction: Lentivirus gene expression vectors encoding EGFP-P2A linker-human EPOR or EGFP-P2A-human c-MPL were cloned according to our design by VectorBuilder (TX, USA). Plasmid DNA for the above and pCMV-dR8.2 dvpr and pCMV-VSV-G packaging plasmids was purified using ZymoPUREII-EndoZero plasmid maxiprep kit (Zymo Research, CA). Lentiviral particles were generated with HEK293T cells and Lipofectamine3000 reagent (Thermo Fisher Scientific, MA) following the manufacturers' instructions. Viral supernatant was harvested at 24 and 48 hours, pooled, and concentrated with lenti-X concentrator (Takara Bio, Japan) or by centrifugation at 18,600 rpm for 2 hours at 4° C. […] After 5 days post-transduction, cells were stained and sorted with fluorescence-activated cell sorting (FACS) using a BD FACSAria II to purify GFP^+EPOR^+ and GFP^+c-MPL^+ NK cell populations.
In vitro cell expansion cultures: The NK-92 (5×10^4 cell/ml) and KHYG-1 (1×10^4 cell/ml) cells were cultured in 1 ml of complete medium in 24-well plate. […] Trypan blue negative cells were counted every other day. […] Viable cells were counted and percentage of GFP^+ cells was acquired on indicated days (NK: day 4 and 6, T: day 3 and 6). The fold change of GFP^+ cells was calculated by multiplying the counted cell number times the fraction GFP^+.

TPO: recombinant human thrombopoietin, ligand of the c-MPL receptor; 50 ng/ml rhTPO (R&D)
fold expansion of c-MPL+ NK-92 cells (TPO alone): 7 fold | fold expansion of c-MPL+ NK-92 cells (TPO plus 1 U/ml IL-2): 23.25 fold
